# Laboratory results reported in US10329334B2 (SANOFI, priority 2015, dated 2019).
# Starred links: 1 amine or outer side, 2 acyl side, 3 side chain; linkers in the order of their positions; H or OH if unused. Positions of bridges follow the written chain, without caps; N, C: chain ends. Non-standard residues stand in square brackets, D forms with d. Residues, ends and D or L forms follow the SMILES beside them. *: point of attachment. X1 = O=C([C@@H]1CCNc2c(N[*:1])cc3cc(O)c(O)cc3[n+]21)[*:2]; X4 = O=C([C@@H]1CCN=C2C(N[*:1])=Cc3cc(O)c(O)cc3N21)[*:2]; dOrn(N5-OH,N5-CHO) = N[C@H](CCCN(O)C=O)C(=O)O; Butanoyl(2-oxo,4-COOH) = O=C(O)CCC(=O)C(=O)*; X5 = O=CN(O)CCC[C@H](N[*:1])C(=O)[*:2]; d(aThr) = C[C@@H](O)[C@@H](N)C(=O)O; Suc = O=C(CCC(=O)[*:2])[*:1]; X2 = O=C1[C@@H](N*)CCCN1[O-]; Orn = NCCC[C@H](N)C(=O)O
# Columns and labels:
# Type in all cases: binding
# [1] = target: negative control lipocalin SEQ ID NO: 64 (Homo sapiens, UniProt P80188, C107S/Q48H); assay: SPR (Biacore T200), negative control SEQ ID NO: 64; conditions: 1200 nM
# Sequence of negative control lipocalin SEQ ID NO: 64 (P80188 21-198 Q48H/C107S): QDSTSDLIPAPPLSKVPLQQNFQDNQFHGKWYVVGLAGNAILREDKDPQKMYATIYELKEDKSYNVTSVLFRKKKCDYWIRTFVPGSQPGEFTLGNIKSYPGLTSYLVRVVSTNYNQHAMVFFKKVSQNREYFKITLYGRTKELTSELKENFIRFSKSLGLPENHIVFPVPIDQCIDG
# Method: (§1) In a Surface Plasmon Resonance (SPR) based assay a Biacore T200 instrument (GE Healthcare) was used to measure the binding affinity of muteins to pyoverdine I succinyl, -succinamid, -α-ketoglutaryl with complexed iron ion or to pyoverdine II succinyl, -succinamid, -α-ketoglutaryl with complexed iron ion or to pyoverdine III succinyl, -succinamid, -α-ketoglutaryl with complexed iron ion. Muteins selected for binding to pyoverdines and negative control (SEQ ID NO: 64) were biotinylated for 2 h at room temperature applying an appropriate excess of EZ-Link NHS-PEG4-Biotin (Thermo, […]) followed by separation of non-reacted Biotin using a Zeba Spin Desalting Plate (Thermo, […]) according to the manufactures instructions.
# (§2) In the SPR affinity assay, biotinylated muteins and negative control were captured on a sensor chip CAP using the Biotin CAPture Kit (GE Healthcare): Sensor Chip CAP is pre-immobilized with an ssDNA oligo. Undiluted Biotin CAPture Reagent (streptavidin conjugated with the complementary ss-DNA oligo) was applied at a flow rate of 2 μl/min for 300 s. Subsequently, 1 μg/ml to 100 μg/mL of biotinylated muteins or negative control were applied for 300 s at a flow rate of 5 μl/min. The reference channel was loaded with Biotin CAPture Reagent only.
# Applying a flow rate of 30 μl/min, a single cycle or multi cycle kinetics approach was used with a sample contact time of 120-180 s and a dissociation time of 900-2400 s. […] After ligand immobilization, for analysis using single cycle kinetics all 4-5 concentrations of Pvd were applied consecutively in ascending order before the dissociation was monitored. For analysis using multi cycle kinetics 4 dilutions of Pvd were applied, each followed a dissociation phase. All measurements were performed at 25° C. […] Data were evaluated with Biacore T200 Evaluation software (V 1.0). Double referencing was used. A 1:1 Binding model was used to fit the raw data. […]
# [2] = target: T1, human lipocalin 2 (hNGAL) mutein SEQ ID NO: 47 (Homo sapiens, UniProt P80188, A60L/C107S/D97K/I61A/K154W/K93H/L123Q/L56E/L62R/L90R/N116L/Q48H/Q69M/R101V/S125P/S147V/S88E/W99D/Y120D/Y126E/Y72M); assay: SPR (Biacore T200), mutein SEQ ID NO: 47; conditions: 25° C.
# T1 construct: made in house; host or cells: E. coli
# T1 sequence (P80188 21-198 with the stated changes): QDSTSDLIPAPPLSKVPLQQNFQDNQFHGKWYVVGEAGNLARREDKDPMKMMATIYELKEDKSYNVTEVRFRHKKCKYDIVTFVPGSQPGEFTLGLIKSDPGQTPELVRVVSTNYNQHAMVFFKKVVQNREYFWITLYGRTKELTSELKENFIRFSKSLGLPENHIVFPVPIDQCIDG
# Method: as §1, §2
# (§3) Applying a flow rate of 30 μl/min, a single cycle or multi cycle kinetics approach was used with a sample contact time of 120-180 s and a dissociation time of 900-2400 s. […] After ligand immobilization, for analysis using single cycle kinetics all 4-5 concentrations of Pvd were applied consecutively in ascending order before the dissociation was monitored. For analysis using multi cycle kinetics 4 dilutions of Pvd were applied, each followed a dissociation phase. All measurements were performed at 25° C. […] Data were evaluated with Biacore T200 Evaluation software (V 1.0). Double referencing was used. A 1:1 Binding model was used to fit the raw data.
# [3] = target: T2, human lipocalin 2 (hNGAL) mutein SEQ ID NO: 49 (Homo sapiens, UniProt P80188, A60L/C107S/D65G/D97K/I61A/K154W/K66R/K93H/L123Q/L56E/L90R/N116L/Q48H/Q69M/R101V/S125P/S147V/S88E/W99D/Y120D/Y126E/Y72M); assay: SPR (Biacore T200), mutein SEQ ID NO: 49; conditions: 25° C.
# T2 construct: made in house; host or cells: E. coli
# T2 sequence (P80188 21-198 with the stated changes): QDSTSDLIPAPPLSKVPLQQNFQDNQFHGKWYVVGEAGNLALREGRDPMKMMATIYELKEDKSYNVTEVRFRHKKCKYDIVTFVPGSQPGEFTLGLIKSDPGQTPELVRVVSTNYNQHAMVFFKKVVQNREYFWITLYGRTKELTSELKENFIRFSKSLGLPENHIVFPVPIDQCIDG
# Method: as §1, §2, §3
# [4] = target: T3, human lipocalin 2 (hNGAL) mutein SEQ ID NO: 45 (Homo sapiens, UniProt P80188, A60L/C107S/D97K/I61A/K154W/K93H/L123Q/L56E/L90R/N116L/Q48H/Q69M/R101V/S147V/S88E/W99D/Y120D/Y126E/Y72M); assay: SPR (Biacore T200), mutein SEQ ID NO: 45; conditions: 25° C.
# T3 construct: made in house; host or cells: E. coli
# T3 sequence (P80188 21-198 with the stated changes): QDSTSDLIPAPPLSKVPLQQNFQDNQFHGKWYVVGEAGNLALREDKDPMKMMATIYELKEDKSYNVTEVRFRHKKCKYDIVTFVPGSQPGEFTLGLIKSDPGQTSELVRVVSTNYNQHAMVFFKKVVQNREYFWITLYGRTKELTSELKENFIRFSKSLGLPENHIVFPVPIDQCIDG
# Method: as §1, §2, §3
# [5] = target: T4, human lipocalin 2 (hNGAL) mutein SEQ ID NO: 43 (Homo sapiens, UniProt P80188, A60L/C107S/D97K/I61A/K154W/K93Q/L123Q/L56E/L90R/N116L/Q48H/Q69M/R101V/S147V/S88E/W99D/Y120D/Y126E/Y72M); assay: SPR (Biacore T200), mutein SEQ ID NO: 43; conditions: 25° C.
# T4 construct: made in house; host or cells: E. coli
# T4 sequence (P80188 21-198 with the stated changes): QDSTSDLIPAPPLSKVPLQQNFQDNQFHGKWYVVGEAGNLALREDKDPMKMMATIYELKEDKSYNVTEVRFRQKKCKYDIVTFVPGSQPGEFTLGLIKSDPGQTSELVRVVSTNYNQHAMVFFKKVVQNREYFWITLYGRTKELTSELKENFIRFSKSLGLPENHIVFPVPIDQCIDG
# Method: as §1, §2, §3
# [6] = target: T5, human lipocalin 2 (hNGAL) mutein SEQ ID NO: 44 (Homo sapiens, UniProt P80188, A60L/C107S/D97K/I61T/K154W/K93R/L123Q/L56E/L90R/N116V/Q48H/Q69M/R101V/S147V/S88E/W99D/Y120D/Y126E/Y72M); assay: SPR (Biacore T200), mutein SEQ ID NO: 44; conditions: 25° C.
# T5 construct: made in house; host or cells: E. coli
# T5 sequence (P80188 21-198 with the stated changes): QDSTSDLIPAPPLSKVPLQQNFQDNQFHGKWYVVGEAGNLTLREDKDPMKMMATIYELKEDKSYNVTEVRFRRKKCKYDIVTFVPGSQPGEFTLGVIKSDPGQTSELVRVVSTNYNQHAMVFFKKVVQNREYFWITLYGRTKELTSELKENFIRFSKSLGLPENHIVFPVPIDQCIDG
# Method: as §1, §2, §3
# [7] = target: T6, human lipocalin 2 (hNGAL) mutein SEQ ID NO: 48 (Homo sapiens, UniProt P80188, A60L/C107S/D67N/D97K/I61A/K154W/K93H/L123Q/L56E/L90R/N116L/Q48H/Q69M/R101V/S125P/S147V/S88E/T165P/W99D/Y120D/Y126E/Y72M); assay: SPR (Biacore T200), mutein SEQ ID NO: 48; conditions: 25° C.
# T6 construct: made in house; host or cells: E. coli
# T6 sequence (P80188 21-198 with the stated changes): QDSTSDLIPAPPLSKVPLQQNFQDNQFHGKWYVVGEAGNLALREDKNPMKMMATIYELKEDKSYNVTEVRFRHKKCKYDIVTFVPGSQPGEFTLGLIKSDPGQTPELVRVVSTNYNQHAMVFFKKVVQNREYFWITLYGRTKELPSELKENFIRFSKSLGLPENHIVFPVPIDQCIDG
# Method: as §1, §2, §3
# [8] = target: T7, human lipocalin 2 (hNGAL) mutein SEQ ID NO: 46 (G-N-I-K, positions 95-98, deleted) (Homo sapiens, UniProt P80188, A60L/C107S/D97Q/DEL115-118/I61A/K154W/K93Y/L123Q/L56E/L90R/Q48H/Q69K/R101V/S147V/S88E/W99D/Y120E/Y126E/Y152F/Y72M); assay: SPR (Biacore T200), mutein SEQ ID NO: 46; conditions: 25° C.
# T7 construct: made in house; host or cells: E. coli
# T7 sequence (P80188 with tags, fused parts or gaps with the stated changes): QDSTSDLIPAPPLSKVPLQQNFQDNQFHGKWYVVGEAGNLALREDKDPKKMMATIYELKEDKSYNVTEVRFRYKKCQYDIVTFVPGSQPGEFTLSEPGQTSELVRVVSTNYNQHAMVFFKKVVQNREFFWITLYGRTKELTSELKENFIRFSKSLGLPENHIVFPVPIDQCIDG
# Method: as §1, §2, §3
# [9] = target: T8, human lipocalin 2 (hNGAL) mutein SEQ ID NO: 35 (Homo sapiens, UniProt P80188, A60T/C107S/D97H/K145I/K154W/K93R/L123T/L56V/L90R/N85Q/Q48H/Q69G/R101D/R92I/S147R/S88D/T74A/W99Y/Y126Q/Y152I/Y72N); assay: SPR (Biacore T200), mutein SEQ ID NO: 35; conditions: for specificity and crossreactivity (binding): 2 μM for all analytes
# T8 construct: made in house; host or cells: E. coli
# T8 sequence (P80188 21-198 with the stated changes): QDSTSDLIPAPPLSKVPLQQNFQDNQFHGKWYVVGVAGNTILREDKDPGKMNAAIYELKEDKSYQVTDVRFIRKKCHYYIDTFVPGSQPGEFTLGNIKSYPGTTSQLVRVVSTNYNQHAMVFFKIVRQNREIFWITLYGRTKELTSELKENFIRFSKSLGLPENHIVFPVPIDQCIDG
# Method: (§4) In a Surface Plasmon Resonance (SPR) based assay a Biacore T200 instrument (GE Healthcare) was used to measure the binding affinity of muteins to pyoverdine I succinyl, -succinamid, -α-ketoglutaryl with complexed iron ion or to pyoverdine II succinyl, -succinamid, -α-ketoglutaryl with complexed iron ion or to pyoverdine III succinyl, -succinamid, -α-ketoglutaryl with complexed iron ion. Muteins selected for binding to pyoverdines and negative control (SEQ ID NO: 64) were biotinylated for 2 h at room temperature applying an appropriate excess of EZ-Link NHS-PEG4-Biotin (Thermo, Cat#21329) followed by separation of non-reacted Biotin using a Zeba Spin Desalting Plate (Thermo, Cat#21329) according to the manufactures instructions.
# [10] = target: T9, human lipocalin 2 (hNGAL) mutein SEQ ID NO: 33 (Homo sapiens, UniProt P80188, A60E/C107S/D97N/E64D/I61V/K145N/K154W/K93N/L123V/L56V/L90R/N116K/N85Q/Q48H/Q69G/R101E/R92H/S147K/S88E/W99F/Y120N/Y126M/Y152G/Y72P); assay: SPR (Biacore T200), mutein SEQ ID NO: 33; conditions: 25° C.
# T9 construct: made in house; host or cells: E. coli
# T9 sequence (P80188 21-198 with the stated changes): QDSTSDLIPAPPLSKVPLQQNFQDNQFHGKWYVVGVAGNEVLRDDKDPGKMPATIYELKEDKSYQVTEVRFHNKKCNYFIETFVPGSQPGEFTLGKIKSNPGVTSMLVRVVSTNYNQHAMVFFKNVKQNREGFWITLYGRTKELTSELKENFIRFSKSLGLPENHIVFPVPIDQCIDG
# Method: as §4
# [11] = target: T10, human lipocalin 2 (hNGAL) mutein SEQ ID NO: 32 (Homo sapiens, UniProt P80188, A60E/C107S/D97N/E64D/I61V/K145N/K154W/K93N/L123V/L56V/L90R/N116K/N85D/Q48H/Q69G/R101E/R92H/S147K/S88E/W99F/Y120N/Y126M/Y152G/Y72P); assay: SPR (Biacore T200), mutein SEQ ID NO: 32; conditions: 25° C.
# T10 construct: made in house; host or cells: E. coli
# T10 sequence (P80188 21-198 with the stated changes): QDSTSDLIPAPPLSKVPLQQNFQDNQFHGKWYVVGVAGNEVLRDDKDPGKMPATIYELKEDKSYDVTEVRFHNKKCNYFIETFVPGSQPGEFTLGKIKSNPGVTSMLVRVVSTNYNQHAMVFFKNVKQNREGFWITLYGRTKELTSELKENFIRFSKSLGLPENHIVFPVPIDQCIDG
# Method: as §4
smiles,measurement,setting,value
"C[C@@H](O)[C@@H](NC(=O)CNC(=O)[C@H](CCCN)NC(=O)[C@@H](CCCN([O-])C=O)NC(=O)[C@@H](CO)NC(=O)[C@@H]1CCNc2c(NC(=O)CCC(=O)O)cc3cc([O-])c([O-])cc3[n+]21)C(=O)N[C@@H](CO)C(=O)N[C@H]1CCCN([O-])C1=O.[Fe+3] [Pvd II s (+Fe)] (Suc-[X1][dS][dOrn(N5-OH,N5-CHO)][Orn]G[d(aThr)]S-X2)",absence of binding to negative control,[1],absence of binding
NC(=O)CC[C@H](NC(=O)[C@H](CCCN([O-])C=O)NC(=O)[C@@H]1CCN=C([C@@H](CO)NC(=O)[C@@H]2CCNc3c(NC(=O)C(=O)CCC(=O)O)cc4cc([O-])c([O-])cc4[n+]32)N1)C(=O)N[C@H](CCC(N)=O)C(=O)N[C@H](CCCN([O-])C=O)C(=O)NCC(=O)O.[Fe+3] [Pvd III aKG (+Fe)],Kd,[2],8.97 nM
same,koff,[2],0.000262 s⁻¹
same,kon,[2],29200 M⁻¹ s⁻¹
same,Kd,[3],1.53 nM
same,koff,[3],4.29e-05 s⁻¹
same,kon,[3],28100 M⁻¹ s⁻¹
same,Kd,[4],6.99 nM
same,koff,[4],0.00033 s⁻¹
same,kon,[4],47300 M⁻¹ s⁻¹
same,Kd,[5],5.29 nM
same,koff,[5],0.000303 s⁻¹
same,kon,[5],57300 M⁻¹ s⁻¹
same,Kd,[6],5.64 nM
same,koff,[6],0.000271 s⁻¹
same,kon,[6],48200 M⁻¹ s⁻¹
same,Kd,[7],5.81 nM
same,koff,[7],0.000158 s⁻¹
same,kon,[7],27200 M⁻¹ s⁻¹
same,Kd,[8],3.15 nM
same,koff,[8],0.000241 s⁻¹
same,kon,[8],76700 M⁻¹ s⁻¹
"CC(=O)N(O)CCCCCNC(=O)CCC(=O)N(O)CCCCCNC(=O)CCC(=O)N(O)CCCCCN [Desferoxamin, desferoxamine, reference compound]",specificity and crossreactivity (binding),[9],absence of binding
"CN1[C@@H]([C@H]2CSC(c3ccccc3O)=N2)SC[C@H]1C(=O)O [Pyochelin, pyochelin]",specificity and crossreactivity (binding),[9],absence of binding
C[C@@H](O)[C@@H]1NC(=O)[C@H](CCCN(O)C=O)NC(=O)[C@@H](NC(=O)[C@H](CCCN(O)C=O)NC(=O)[C@@H](CO)NC(=O)[C@H](CCCNC(=N)N)NC(=O)[C@@H](CO)NC(=O)[C@@H]2CCN=C3C(NC(=O)CCC(=O)O)=Cc4cc(O)c(O)cc4N32)CCCCNC(=O)[C@H]([C@@H](C)O)NC1=O.[Fe+3] [Pvd I s (+Fe)] (Suc-[X4][dS]R[dS][X5]K[X5]TT; lactam 6-C),absence of binding to negative control,[1],absence of binding
NC(=O)CCC(=O)Nc1cc2cc([O-])c([O-])cc2[n+]2c1NCC[C@H]2C(=O)N[C@H](CO)C1=NCC[C@@H](C(=O)N[C@@H](CCCN([O-])C=O)C(=O)N[C@@H](CCC(N)=O)C(=O)N[C@H](CCC(N)=O)C(=O)N[C@H](CCCN([O-])C=O)C(=O)NCC(=O)O)N1.[Fe+3] [Pvd III sa (+Fe)],Kd,[2],0.2 nM
same,koff,[2],2.52e-05 s⁻¹
same,kon,[2],128000 M⁻¹ s⁻¹
same,Kd,[3],0.84 nM
same,koff,[3],0.000112 s⁻¹
same,kon,[3],134000 M⁻¹ s⁻¹
same,Kd,[4],3.03 nM
same,koff,[4],9.91e-05 s⁻¹
same,kon,[4],32700 M⁻¹ s⁻¹
same,Kd,[5],3.04 nM
same,koff,[5],0.000107 s⁻¹
same,kon,[5],35200 M⁻¹ s⁻¹
same,Kd,[6],2.94 nM
same,koff,[6],8.9e-05 s⁻¹
same,kon,[6],30300 M⁻¹ s⁻¹
same,Kd,[7],0.64 nM
same,koff,[7],9.51e-05 s⁻¹
same,kon,[7],148000 M⁻¹ s⁻¹
same,Kd,[8],1.58 nM
same,koff,[8],6.9e-05 s⁻¹
same,kon,[8],43600 M⁻¹ s⁻¹
"C[C@@H](O)[C@@H](NC(=O)CNC(=O)[C@H](CCCN)NC(=O)[C@@H](CCCN([O-])C=O)NC(=O)[C@@H](CO)NC(=O)[C@@H]1CCNc2c(NC(=O)C(=O)CCC(=O)O)cc3cc([O-])c([O-])cc3[n+]21)C(=O)N[C@@H](CO)C(=O)N[C@H]1CCCN([O-])C1=O.[Fe+3] [Pvd II aKG (+Fe)] ({Butanoyl(2-oxo,4-COOH)}-[X1][dS][dOrn(N5-OH,N5-CHO)][Orn]G[d(aThr)]S-X2)",Kd,[10],4.19 nM
same,koff,[10],0.000416 s⁻¹
same,kon,[10],99300 M⁻¹ s⁻¹
same,Kd,[9]; 25° C.,3.42 nM
same,koff,[9]; 25° C.,0.000149 s⁻¹
same,kon,[9]; 25° C.,43500 M⁻¹ s⁻¹
same,Kd,[11],3.44 nM
same,koff,[11],0.000374 s⁻¹
same,kon,[11],109000 M⁻¹ s⁻¹
